This passage reports inhibition results from US8269000B2, “Substituted pyrimidine and triazine compounds” (Gruenenthal GmbH, priority 2008, dated 2012).

Structures are written as SMILES. Counter-ions that a name gives are not always drawn.

The target of experiment [1] is T1, human B1R (Homo sapiens, UniProt P46663).
T1 construct: expressed in transfected cells; host or cells: CHO K1 cells
T1 sequence (P46663 1-353): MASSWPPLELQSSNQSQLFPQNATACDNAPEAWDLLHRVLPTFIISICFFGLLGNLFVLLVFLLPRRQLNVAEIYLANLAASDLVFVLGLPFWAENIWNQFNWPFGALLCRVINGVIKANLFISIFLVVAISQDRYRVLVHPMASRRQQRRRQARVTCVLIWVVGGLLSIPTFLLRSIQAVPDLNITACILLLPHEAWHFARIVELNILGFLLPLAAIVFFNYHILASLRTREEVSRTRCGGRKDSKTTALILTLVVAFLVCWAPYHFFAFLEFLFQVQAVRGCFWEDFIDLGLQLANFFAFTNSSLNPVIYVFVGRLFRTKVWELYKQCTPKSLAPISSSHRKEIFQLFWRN
The experiment is described as follows: FLIPR Ca2+ functional study on bradykinin receptor 1 (hB1R CHO K1 cells). The experiment is classed as cell-based. Conditions: % inhibition human B1R at 10 μM, read-out: % inh. (hum. B1R) 10 μM. On the procedure: The agonistic or antagonistic activity of substances can be quantified on the bradykinin receptor 1 (B1R) of the species human and rat using ectopically expressing cell lines (CHO K1 cells) and with the aid of a Ca^2+-sensitive dye (Fluo-4) using a fluorescent imaging plate reader (FLIPR). The indication in % activation is based on the Ca^2+ signal after addition of Lys-Des-Arg^9-bradykinin (0.5 nM) or Des-Arg^9-bradykinin (100 nM). Antagonists lead to suppression of the Ca^2+ influx after the addition of the agonist. % Inhibition compared with the maximum achievable inhibition is indicated.
The agonistic or antagonistic activity of substances can be determined on the bradykinin receptor 1 (B1R) of the species human and rat using the following assay. According to this assay, the Ca^2+ influx through the channel is quantified with the aid of a Ca^2+-sensitive dye (Fluo-4 type, Molecular Probes Europe BV, Leiden, Netherlands) using a Fluorescent Imaging Plate Reader (FLIPR, Molecular Devices, Sunnyvale, USA).
Chinese hamster ovary cells (CHO K1 cells) which have been stably transfected with the human B1R gene (hB1R cells) or with the B1R gene of the rat (rB1R cells) are used. For functional studies, the cells are plated out on black 96-well plates having a clear base (BD Biosciences, Heidelberg, Germany or Greiner, Frickenhausen, Germany) in a density of 20,000-35,000 cells/well. The cells are left overnight at 37° C. and with 5% CO2 in culture medium (hB1R cells: Nutrient Mixture Ham's F12, Gibco Invitrogen GmbH, Karlsruhe, Germany or DMEM, Sigma-Aldrich, Taufkirchen, Germany; rB1R cells: D-MEM/F12, Gibco Invitrogen GmbH, Karlsruhe, Germany), with 10 vol.% FBS (fetal bovine serum, Gibco Invitrogen GmbH, Karlsruhe, Germany or PAN Biotech GmbH, Aidenbach, Germany). On the following day, the cells are loaded for 60 minutes at 37° C. with 2.13 μM Fluo-4 (Molecular Probes Europe BV, Leiden, Netherlands) in HBSS buffer (Hank's buffered saline solution, Gibco Invitrogen GmbH, Karlsruhe, Germany) […] (Sigma-Aldrich, Taufkirchen, Germany) and 10 mM HEPES (Sigma-Aldrich, Taufkirchen, Germany). The plates are then washed twice with HBSS buffer, and HBSS buffer additionally containing 0.1% BSA (bovine serum albumin; Sigma-Aldrich, Taufkirchen, Germany), 5.6 mM glucose and 0.05% gelatin (Merck KGaA, Darmstadt, Germany) is added to the plates. After incubation for a further 20 minutes at room temperature, the plates are inserted into the FLIPR for Ca^2+ measurement. Alternatively, washing is carried out with buffer A (15 mM HEPES, 80 mM NaCl, 5 mM KCl, 1.2 mM CaCl2, 0.7 mM MgSO4, 2 g/l glucose, 2.5 mM probenecid) followed by loading with buffer A with added 2.5 μM Fluo-4 and 0.025% Pluronic F127 (Sigma-Aldrich, Taufkirchen, Germany). The cells are then washed twice with buffer A and incubated for 30 minutes at room temperature with buffer A additionally containing 0.05% BSA and 0.05% gelatin and are then inserted into the FLIPR for Ca^2+ measurement. The Ca^2+-dependent fluorescence is measured before and after the addition of substances (λex=488 nm, λem=540 nm). Quantification is carried out by measuring the highest fluorescence intensity (FC, fluorescence counts) over time.
The FLIPR protocol consists of two substance additions. Test substances (10 μM) are first pipetted onto the cells and the Ca^2+ influx is compared with the control (hB1R: Lys-Des-Arg^9-bradykinin>=50 nM; rB1R: Des-Arg^9-bradykinin 10 μM). This gives the activation in %, based on the Ca^2+ signal after addition of Lys-Des-Arg^9-bradykinin (>=50 nM) or Des-Arg^9-bradykinin (10 μM). After 10-20 minutes' incubation, Lys-Des-Arg^9-bradykinin (hB1R) or Des-Arg^9-bradykinin (rB1R) is applied in the concentration of the EC80, and the influx of Ca^2+ is likewise determined. Antagonists lead to suppression of the Ca^2+ influx. The % inhibition compared with the maximum achievable inhibition is calculated. […]

Experiment [2] has as its target T2, rat B1R (Rattus norvegicus, UniProt P97583).
T2 construct: expressed in transfected cells; host or cells: CHO K1 cells
T2 sequence (P97583 1-337): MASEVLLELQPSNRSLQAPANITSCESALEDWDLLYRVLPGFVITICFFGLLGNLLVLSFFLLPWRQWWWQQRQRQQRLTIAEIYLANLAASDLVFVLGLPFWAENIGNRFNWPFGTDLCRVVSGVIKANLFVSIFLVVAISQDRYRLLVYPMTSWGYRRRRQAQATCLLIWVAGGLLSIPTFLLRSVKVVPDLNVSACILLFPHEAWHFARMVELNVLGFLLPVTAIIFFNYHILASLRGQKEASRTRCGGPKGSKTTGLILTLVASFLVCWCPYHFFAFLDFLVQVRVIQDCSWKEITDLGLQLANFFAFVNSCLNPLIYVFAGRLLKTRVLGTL
The experiment is described as follows: FLIPR Ca2+ functional study on bradykinin receptor 1 (rB1R CHO K1 cells). The following applies: CHO-K1, % inhibition rat B1R at 10 μM, read-out: % inh. (rat B1R) 10 μM. Format: cell-based. The procedure, abridged:
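CHO K1 cells stably expressing human or rat B1R were loaded with Fluo-4 and read on FLIPR (ex 488/em 540 nm, peak counts). Test compound (10 μM, or a concentration range for IC50) was added first for % activation versus control agonist; after 10-20 min, EC80 Lys-Des-Arg9-bradykinin (human) or Des-Arg9-bradykinin (rat) was added, giving % inhibition of maximum. n=2-3, N≥2.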

For `COc1cc(C)c(S(=O)(=O)N(CCOc2nccc(N3CCC4(CCN(c5ccncc5)C4)C3)n2)C2CC2)c(C)c1` (centres unmarked) [Example G-014, N-cyclopropyl-4-methoxy-2,6-dimethyl-N-[2-[[4-[8-(4-pyridyl)-3,8-diazaspiro[4.4]nonan-3-yl]-2-pyrimidinyl]oxy]ethyl]benzenesulfonamide], the inhibition at 10 µM in experiment [1] is 100%; in experiment [2], 102%.

`COc1cc(C)c(S(=O)(=O)N(CCOc2nccc(N3CCC4(CCC(N5CCC5)CC4)CC3)n2)C2CC2)c(C)c1` [Example G-015, N-[2-[[4-[9-(1-azetidinyl)-3-azaspiro[5.5]undecan-3-yl]-2-pyrimidinyl]oxy]ethyl]-N-cyclopropyl-4-methoxy-2,6-dimethylbenzenesulfonamide hydrochloride]: the inhibition at 10 µM in experiment [1] came out at 99%; in experiment [2] it was 95%.

As to `COc1cc(C)c(S(=O)(=O)N(CCOc2nccc(N3CCC4(CCC(Oc5ccncc5)CC4)CC3)n2)C2CC2)c(C)c1` [Example G-016, N-cyclopropyl-4-methoxy-2,6-dimethyl-N-[2-[[4-[9-(4-pyridyloxy)-3-azaspiro[5.5]undecan-3-yl]-2-pyrimidinyl]oxy]ethyl]benzenesulfonamide], the values for the inhibition at 10 µM in experiment [1] and in experiment [2] were 96% and 99%, respectively.

As for `COc1cc(C)c(S(=O)(=O)N(CCOc2nccc(N3CCC4(CCC(N5CC(F)(F)C5)CC4)CC3)n2)C2CC2)c(C)c1` [Example G-017, N-cyclopropyl-N-[2-[[4-[9-(3,3-difluoro-1-azetidinyl)-3-azaspiro[5.5]undecan-3-yl]-2-pyrimidinyl]oxy]ethyl]-4-methoxy-2,6-dimethylbenzenesulfonamide], the inhibition at 10 µM in experiment [1] came out at 22%; in experiment [2], 103%.

Turning to `COc1cc(C)c(S(=O)(=O)N2CC(Oc3nccc(N4CCC5(CCN(c6ccncc6)CC5)CC4)n3)C2)c(C)c1` [Example G-018, 3-[2-[[1-(4-methoxy-2,6-dimethylphenyl)sulfonyl-3-azetidinyl]oxy]-4-pyrimidinyl]-9-(4-pyridyl)-3,9-diazaspiro[5.5]undecane], the inhibition at 10 µM in experiment [1] was 99%; in experiment [2], 93%.

As to `COc1cc(C)c(S(=O)(=O)N(CCOc2nccc(N3CCC4(CCN(c5ccncc5)CC4)C3)n2)C2CC2)c(C)c1` [Example G-019, N-cyclopropyl-4-methoxy-2,6-dimethyl-N-[2-[[4-[8-(4-pyridyl)-3,8-diazaspiro[4.5]decan-3-yl]-2-pyrimidinyl]oxy]ethyl]benzenesulfonamide], the inhibition at 10 µM in experiment [1] is 100%; in experiment [2], 102%.

As for `COc1cc(C)c(S(=O)(=O)N(CCOc2nccc(N3CC(N4CCc5cc(CN6CCC6)ccc5C4)C3)n2)C2CC2)c(C)c1` [Example G-020, N-[2-[[4-[3-[6-(1-azetidinylmethyl)-3,4-dihydro-1H-isoquinolin-2-yl]-1-azetidinyl]-2-pyrimidinyl]oxy]ethyl]-N-cyclopropyl-4-methoxy-2,6-dimethylbenzenesulfonamide], the inhibition at 10 µM turned out to be 95% in experiment [1] and 101% in experiment [2].

For the compound `Cc1ccc(Cl)c(S(=O)(=O)N(CCOc2nccc(N3CCC4(CCN(c5ccncc5)CC4)CC3)n2)C2CC2)c1Cl` [Example G-021, 2,6-dichloro-N-cyclopropyl-3-methyl-N-[2-[4-(9-pyridin-4-yl-3,9-diazaspiro[5.5]undecan-3-yl)-pyrimidin-2-yl]oxy-ethyl]-benzenesulfonic acid amide], the inhibition at 10 µM amounted to 90% in experiment [1] and 86% in experiment [2].

Turning to `COc1cc(C)c(S(=O)(=O)NC2(COc3nccc(N4CCC5(CCN(c6ccncc6)CC5)CC4)n3)CCC2)c(C)c1` [Example G-022, 4-methoxy-2,6-dimethyl-N-[1-[[4-(9-pyridin-4-yl-3,9-diazaspiro[5.5]undecan-3-yl)-pyrimidin-2-yl]oxy-methyl]-cyclobutyl]-benzenesulfonic acid amide], the inhibition at 10 µM was found to be 100% in experiment [1] and 103% in experiment [2].

`COc1cc(C)c(S(=O)(=O)N(CCOc2nccc(N3CCC4(CC3)CCC(OCCN3CCCC3)(c3cccnc3)CC4)n2)C2CC2)c(C)c1` [Example G-023, N-cyclopropyl-4-methoxy-2,6-dimethyl-N-[2-[4-[9-pyridin-3-yl-9-(2-pyrrolidin-1-yl-ethoxy)-3-azaspiro[5.5]undecan-3-yl]-pyrimidin-2-yl]oxy-ethyl]-benzenesulfonic acid amide]: the inhibition at 10 µM in experiment [1] was 94%; in experiment [2], 107%.

As for `COc1cc(C)c(S(=O)(=O)NC(C)(C)COc2nccc(N3CCC4(CCN(c5ccncc5)CC4)CC3)n2)c(C)c1` [Example G-024, N-[1,1-dimethyl-2-[4-(9-pyridin-4-yl-3,9-diazaspiro[5.5]undecan-3-yl)-pyrimidin-2-yl]oxy-ethyl]-4-methoxy-2,6-dimethyl-benzenesulfonic acid amide], the inhibition at 10 µM in experiment [1] was found to be 99%; in experiment [2] it was 113%.

Regarding `COc1cc(C)c(S(=O)(=O)N(CCCOc2nccc(N3CCC4(CCN(c5ccncc5)CC4)CC3)n2)C2CC2)c(C)c1` [Example G-025, N-cyclopropyl-4-methoxy-2,6-dimethyl-N-[3-[4-(9-pyridin-4-yl-3,9-diazaspiro[5.5]undecan-3-yl)-pyrimidin-2-yl]oxy-propyl]-benzenesulfonic acid amide], the inhibition at 10 µM in experiment [1] was determined as 92%; in experiment [2], 104%.

With `COc1cc(C)c(S(=O)(=O)N2CCCC[C@H]2COc2nccc(N3CCC4(CCN(c5ccncc5)CC4)CC3)n2)c(C)c1` [Example G-026, 3-[2-[[(2S)-1-[(4-methoxy-2,6-dimethyl-phenyl)sulfonyl]-piperidin-2-yl]-methoxy]-pyrimidin-4-yl]-9-pyridin-4-yl-3,9-diazaspiro[5.5]undecane], the inhibition at 10 µM in experiment [1] was determined as 98%; in experiment [2], 101%.
